Structures can show the parent of a compound that is named as a salt. Where two headings read alike, the source gives them in different places.
Key:
PIM1 = PIM1 (Homo sapiens (Human), UniProt P11309); experiment: biochemical; format: biochemical; settings: 10 μM ATP, 90 min, room temperature; read-out: PIM1 LC3K (KI)
Method in brief: (§1)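 Pim-specific fluorescent peptide phosphorylated in 10 mM HEPES pH 7.2, 10 mM MgCl2, 0.01% Tween 20, 2 mM DTT for 90 min at room temperature, then stopped with EDTA. Product and substrate separated by microfluidic mobility shift; Ki derived from substrate conversion.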

PIM3 = PIM3 (Homo sapiens (Human), UniProt Q86V86); experiment: Pim kinase binding activity, Caliper LC3000 microfluidic peptide phosphorylation assay, PIM3; format: biochemical; settings: 10 μM ATP, 90 min, room temperature; read-out: PIM3 LC3K (KI)
Method in brief: as §1

[1] = system: MM1.S (multiple myeloma) cells; experiment: In vitro cell proliferation potency assay (Cell Titer Glo), MM1.S cells; format: cell-based; settings: read-out: Prolif MM1S ATP (EC50)
Protocol: (§2) BaF3 parental line was obtained from the DSMZ repository. BaF3 lines transfected with PIM1 or PIM2 were generated. Mouse IL-3 was purchased from R&D Systems. G418 was purchased from Clontech. Media for BaF3 parental line contained RPMI, 10% FBS, 2 mM L-Glutamine, 2 ng/mL mIL-3. Media for BaF3 PIM1 & 2 lines contained RPMI, 10% FBS, 2 mM L-Glutamine, […]. Media for MM1.S (multiple myeloma cells) line contained RPMI, 10% FBS, 2 mM L-Glutamine.
(§3) BaF3, a murine interleukin-3 dependent pro-B cell line, parental cells, BaF3 PIM1 cells, BaF3 PIM2 cells, and MM1.S (multiple myeloma) cells were seeded at 2 k/well, 5 k/well, 5 k/well, and 10 k/well respectively, in a 384-well plate, at 45 μL/well. Test compound was added at 5 μL/well. BaF3 cells (parental and transfected) were incubated overnight, while MM1.S cells were incubated for 72 hours at 37° C., 5% CO2. CELL TITER GLO® Reagent (Promega) was added at 50 μL/well, the plates were incubated for 30 minutes, and their luminescence read on an HT Analyst. IC50/EC50 values for the test compound were calculated.

PIM2 = PIM2 (Homo sapiens (Human), UniProt Q9P1W9); experiment: Pim kinase binding activity, Caliper LC3000 microfluidic peptide phosphorylation assay, PIM2; format: biochemical; settings: 10 μM ATP, 90 min, room temperature; read-out: PIM2 LC3K (KI)
Method in brief: as §1

BaF3 PIM1 cells = experiment: In vitro cell proliferation potency assay (Cell Titer Glo), BaF3 PIM1 cells; format: cell-based, murine; settings: read-out: Prolif BaF3_PIM 1 (IC50)
Protocol: as §2, §3

[2] = Homo sapiens, MM1.S cells, 72 hours
[3] = BaF3 cells transfected with PIM1, incubated overnight
[4] = Mus musculus, BaF3, BaF3 cells transfected with PIM1, incubated overnight
[5] = Homo sapiens, MM1.S, 72 h, MM1.S cells, 72 hours

Sequence of PIM1 (P11309 whole entry): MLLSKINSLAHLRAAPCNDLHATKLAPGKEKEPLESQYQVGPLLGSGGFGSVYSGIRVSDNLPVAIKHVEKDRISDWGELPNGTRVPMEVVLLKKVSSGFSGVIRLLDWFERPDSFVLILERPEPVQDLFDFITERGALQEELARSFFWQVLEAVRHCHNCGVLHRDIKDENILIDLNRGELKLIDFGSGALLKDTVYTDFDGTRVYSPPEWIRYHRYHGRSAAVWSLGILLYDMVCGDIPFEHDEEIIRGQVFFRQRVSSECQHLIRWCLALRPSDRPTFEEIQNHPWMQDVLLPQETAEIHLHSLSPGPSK
Sequence of PIM2 (Q9P1W9 whole entry): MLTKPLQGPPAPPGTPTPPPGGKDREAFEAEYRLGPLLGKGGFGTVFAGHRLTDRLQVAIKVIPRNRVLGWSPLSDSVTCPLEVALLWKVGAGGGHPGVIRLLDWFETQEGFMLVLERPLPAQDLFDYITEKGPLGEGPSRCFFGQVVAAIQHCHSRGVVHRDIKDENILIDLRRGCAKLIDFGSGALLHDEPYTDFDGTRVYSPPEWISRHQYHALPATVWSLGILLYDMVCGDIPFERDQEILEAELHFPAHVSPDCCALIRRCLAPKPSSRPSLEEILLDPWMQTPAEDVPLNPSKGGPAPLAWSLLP

| SMILES | Ki (PIM1) | Ki (PIM3) | EC50 [1, 2] | Ki (PIM2) | IC50 (BaF3 PIM1 cells; [3]) | IC50 (BaF3 PIM1 cells; [4]) | EC50 ([1]; MM1.S cells, 72 hours) | EC50 [1, 5] | EC50 ([1]; Homo sapiens, MM1.S, 72 h) |
| --- | --- | --- | --- | --- | --- | --- | --- | --- | --- |
| Cc1ccc(-n2ncc3cnc(-c4cnn(CC(F)(F)F)c4)cc32)nc1N1CCNC[C@@H](O)C1 (single isomer, unassigned) [Compound 260] | 0.047 nM | 0.127 nM |  | 1.54 nM |  | 380 nM |  |  | 852 nM |
| Cc1cncc(-c2cc3c(cn2)cnn3-c2cccc(C3CNCCC3(F)F)n2)n1 (single isomer, unassigned) [Compound 271] | 0.189 nM |  |  | 2.45 nM | 1400 nM |  | 4900 nM |  |  |
| Cc1cncc(-c2cc3c(cn2)cnn3-c2cccc(C3CNCCC3(F)F)n2)n1 (single isomer, unassigned) [Compound 272] | 0.067 nM |  |  | 0.234 nM | 194 nM |  | 1200 nM |  |  |
| c1cc(N2CCCNCC2)nc(-n2ncc3cnc(-c4cnn(C5CCC5)c4)cc32)c1 [Compound 147, 1-(6-(1,4-Diazepan-1-yl)pyridin-2-yl)-6-(1-cyclobutyl-1H-pyrazol-4-yl)-1H-pyrazolo[4,3-c]pyridine] | 0.213 nM | 0.259 nM | 2700 nM | 3.92 nM |  | 869 nM |  |  |  |
| CS(=O)(=O)CCn1cc(-c2cc3c(cn2)cnn3-c2cccc(N3CCCNCC3)n2)cn1 [Compound 157, 1-(6-(1,4-Diazepan-1-yl)pyridin-2-yl)-6-(1-(2-(methylsulfonyl)ethyl)-1H-pyrazol-4-yl)-1H-pyrazolo[4,3-c]pyridine] | 0.087 nM | 0.055 nM |  | 6.2 nM |  | 2800 nM |  | 4000 nM |  |
| COc1ccc(-n2ncc3cnc(-c4cncc(C)n4)cc32)nc1N1CCC[C@H](N)C1 [Compound 186, (S)-1-(3-methoxy-6-(6-(6-methylpyrazin-2-yl)-1H-pyrazolo[4,3-c]pyridin-1-yl)pyridin-2-yl)piperidin-3-amine] | 0.0212 nM | 0.013 nM | 508 nM | 0.134 nM |  | 220 nM |  |  |  |
| Cc1cncc(-c2cc3c(cn2)cnn3-c2ccc(C#N)c(N3CCC[C@H](N)C3)n2)n1 [Compound 201, (S)-2-(3-aminopiperidin-1-yl)-6-(6-(6-methylpyrazin-2-yl)-1H-pyrazolo[4,3-c]pyridin-1-yl)nicotinonitrile] | 0.068 nM | 0.02 nM | 1100 nM | 0.286 nM |  | 490 nM |  |  |  |
| Cc1cncc(-c2cc3c(cn2)cnn3-c2ccc(C)c(N3CCC[C@H](N)C3)n2)n1 [Compound 205, (S)-1-(3-methyl-6-(6-(6-methylpyrazin-2-yl)-1H-pyrazolo[4,3-c]pyridin-1-yl)pyridin-2-yl)piperidin-3-amine] | 0.018 nM | 0.014 nM |  | 0.142 nM |  | 278 nM |  | 1200 nM |  |
| Cc1cncc(-c2cc3c(cn2)cnn3-c2ccc(CO)c(N3CCC[C@H](N)C3)n2)n1 [Compound 218, (S)-(2-(3-aminopiperidin-1-yl)-6-(6-(6-methylpyrazin-2-yl)-1H-pyrazolo[4,3-c]pyridin-1-yl)pyridin-3-yl)methanol] | 0.06 nM | 0.054 nM | 574 nM | 0.394 nM |  | 212 nM |  |  |  |
| OCc1cncc(-c2cc3c(cn2)cnn3-c2cccc(N3CCNCC3)n2)n1 [Compound 273, (6-(1-(6-(piperazin-1-yl)pyridin-2-yl)-1H-pyrazolo[4,3-c]pyridin-6-yl)pyrazin-2-yl)methanol dihydrochloride] | 0.117 nM | 0.036 nM |  | 2.63 nM |  | 629 nM |  |  | 5500 nM |
| C=Cc1cncc(-c2cc3c(cn2)cnn3-c2cccc(N3CCNCC3)n2)n1 [Compound 274, 1-(6-(piperazin-1-yl)pyridin-2-yl)-6-(6-vinylpyrazin-2-yl)-1H-pyrazolo[4,3-c]pyridine dihydrochloride] | 0.133 nM | 0.098 nM |  | 4.26 nM |  | 749 nM |  |  | 5100 nM |
| Cc1cncc(-c2cc3c(cn2)cnn3-c2cccc(N3CCCC4(CN(C=O)C4)C3)n2)n1 [Compound 291, 6-(6-(6-(6-methylpyrazin-2-yl)-1H-pyrazolo[4,3-c]pyridin-1-yl)pyridin-2-yl)-2,6-diazaspiro[3.5]nonane-2-carbaldehyde] | 4.41 nM | 3.42 nM |  | 40.9 nM |  |  |  |  | > 25000 nM |
| Cc1cncc(-c2cc3c(cn2)cnn3-c2ccc3c(n2)CC(CN)CO3)n1 (centres unmarked) [Compound 292, (6-(6-(6-methylpyrazin-2-yl)-1H-pyrazolo[4,3-c]pyridin-1-yl)-3,4-dihydro-2H-pyrano[3,2-b]pyridin-3-yl)methanamine] | 1.6 nM | 0.796 nM | 11700 nM | 19.4 nM |  |  |  |  |  |
| Cc1cncc(-c2cc3c(cn2)cnn3-c2cccc(OC3CCCC(N)C3)n2)n1 (centres unmarked) [Compound 311, 3-(6-(6-(6-methylpyrazin-2-yl)-1H-pyrazolo[4,3-c]pyridin-1-yl)pyridin-2-yloxy)cyclohexanamine] | 0.069 nM | 0.036 nM |  |  |  | 1000 nM |  | 5500 nM |  |

The next lines start with results.

| Ki (PIM1) | Ki (PIM3) | EC50 [1, 2] | Ki (PIM2) | IC50 (BaF3 PIM1 cells; [3]) | IC50 (BaF3 PIM1 cells; [4]) | EC50 ([1]; MM1.S cells, 72 hours) | EC50 [1, 5] | SMILES | EC50 ([1]; Homo sapiens, MM1.S, 72 h) |
| --- | --- | --- | --- | --- | --- | --- | --- | --- | --- |
| 0.06 nM | 0.022 nM | 4800 nM | 0.54 nM | 400 nM |  |  |  | Cc1cncc(-c2cc3c(cn2)cnn3-c2cccc(N3CCNC(C)C3)n2)n1 (single isomer, unassigned) [Compound 185, 1-[6-(3-methylpiperazin-1-yl)-2-pyridyl]-6-(6-methylpyrazin-2-yl)pyrazolo[4,3-c]pyridine] |  |
| 0.095 nM | 0.0498 nM |  | 0.893 nM |  | 284 nM |  | 3900 nM | Cc1cncc(-c2cc3c(cn2)cnn3-c2cccc(N3CCNCC3)n2)n1 [Compound 123, 6-(6-methylpyrazin-2-yl)-1-(6-(piperazin-1-yl)pyridin-2-yl)-1H-pyrazolo[4,3-c]pyridine] |  |
| 0.532 nM | 0.656 nM | 4300 nM | 7.81 nM |  | 797 nM |  |  | CC(C)n1cc(-c2cc3c(cn2)cnn3-c2cccc(N3CCCNCC3)n2)cn1 [Compound 146, 1-(6-(1,4-Diazepan-1-yl)pyridin-2-yl)-6-(1-isopropyl-1H-pyrazol-4-yl)-1H-pyrazolo[4,3-c]pyridine] |  |
| 0.058 nM | 0.048 nM |  | 0.678 nM |  | 240 nM |  | 4700 nM | CCc1cncc(-c2cc3c(cn2)cnn3-c2cccc(N3CCNCC3)n2)n1 [Compound 149, 6-(6-ethylpyrazin-2-yl)-1-(6-piperazin-1-yl-2-pyridyl)pyrazolo[4,3-c]pyridine] |  |
| 0.069 nM | 0.079 nM | 3100 nM | 0.978 nM |  | 271 nM |  |  | c1cc(N2CCCNCC2)nc(-n2ncc3cnc(-c4cnn(C5CC5)c4)cc32)c1 [Compound 174, 1-(6-(1,4-Diazepan-1-yl)pyridin-2-yl)-6-(1-cyclopropyl-1H-pyrazol-4-yl)-1H-pyrazolo[4,3-c]pyridine] |  |
| 0.044 nM |  |  | 2.28 nM |  | 112 nM |  | 6400 nM | CCNc1cncc(-c2cc3c(cn2)cnn3-c2cccc(N3CCNCC3)n2)n1 [Compound 285, N-ethyl-6-(1-(6-(piperazin-1-yl)pyridin-2-yl)-1H-pyrazolo[4,3-c]pyridin-6-yl)pyrazin-2-amine] |  |
| 0.514 nM |  |  | 2.37 nM |  | 772 nM |  | 9300 nM | Cc1cncc(-c2cc3c(cn2)cnn3-c2cccc(C3(F)CCCNC3)n2)n1 (centres unmarked) [Compound 294, 1-(6-(3-fluoropiperidin-3-yl)pyridin-2-yl)-6-(6-methylpyrazin-2-yl)-1H-pyrazolo[4,3-c]pyridine] |  |

— patent US9434725B2, “5-azaindazole compounds and methods of use” (priority 2012, dated 2016)
